Reference: patent publication US20090048301A1 (IMCLONE SYSTEMS INCORPORATED, priority 2003, published 2009)

What was measured:
tumor vasculature = conditions: Cancer Research 59, 1626 (1999); cited from earlier work
bovine tubulin = assay: In vitro tubulin polymerization assay (turbidity at 340 nm); format: biochemical; conditions: 10 μM compound, 30 minute data point, vs 1% DMSO control
Outline: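 Bovine tubulin (97%, <3% MAPs) at 3 mg/ml final in G-PEM pH 7 with 1 mM GTP and 5% glycerol, added cold to compound wells at 37° C (1% DMSO final). A340 read each minute for 30 min; percent inhibition from 30-min point versus DMSO control.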

[1] = test system: A431, human epidermoid carcinoma cells; assay: Cell cycle analysis (FACS), mitotic arrest in G2/M; format: cell-based; conditions: Homo sapiens, A-431, 24 h, read-out: FACS Assay: concentration required to achieve inhibition in FACS assay
Outline: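 A431 cells, 500,000/well at treatment, exposed to compounds at 0.01–1 μM final (0.1% DMSO) for 24 h. Ethanol-fixed cells RNase-treated (1 μg/ml, 37° C., 15 min), stained with propidium iodide (50 μg/ml, 30 min, RT). DNA ploidy by flow cytometry; mitotic arrest scored as G2/M accumulation.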

[2] = test system: A431 human cancer cell line; assay: Sulphorhodamine B (SRB) growth inhibition assay; format: cell-based; conditions: A-431, A431 cells, 48 hours, read-out: SRB Assay: μM required to inhibit tumor cell growth by 50% (GI50)
Outline: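 A431 cells were seeded at 10,000 cells/well and preincubated 24 h, then exposed for 48 h at 37 °C, 5% CO2 to five log doses from 100 μM to 0.01 μM (final). After TCA fixation, SRB-stained protein was read at 515 nm. Percent growth was set against time-zero and DMSO control OD, and GI50 was taken at the 50% intercept.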

xenograft models = conditions: Cancer Research 62, 3113, 2002; cited from earlier work
[3] = Cancer Research 61, 392, 2001; cited from earlier work
MDR cells = conditions: Cancer Research 61, 392, 2001; cited from earlier work

SMILES | GI50 [2] | Tubulin Assay: percent inhibition at 10 μM based on 30 minute data (bovine tubulin) | minimal effective concentration [1] | also measured
COc1ccc(/C=C\c2cc(OC)c(OC)c(OC)c2)cc1OP(=O)(O)O [Combretastatin A-4 phosphate] |  |  |  | effect on tumor vasculature and necrosis in mouse tumor models (tumor vasculature): change endothelial cell morphology, shut down tumor vasculature, and induce tumor necrosis
COc1cc(CNc2ncccc2-c2nnc(Nc3ccc(OC)c(OC)c3)o2)cc(OC)c1 [Compound 183, (3,5-Dimethoxy-benzyl)-{3-[5-(3,4-dimethoxy-phenylamino)-[1,3,4]oxadiazol-2-yl]-pyridin-2-yl}-amine] | 6 µM | 50% | 0.1 µM | 
c1cncc(CNc2ncccc2-c2nnc(Nc3ccc4c(c3)OCO4)o2)c1 [Compound 189, {3-[5-(Benzo[1,3]dioxol-5-ylamino)-[1,3,4]oxadiazol-2-yl]-pyridin-2-yl}-pyridin-3-ylmethyl-amine] | 0.6 µM | 89% | 0.1 µM | 
c1ccc(-c2nnc(Nc3ccc4c(c3)OCCO4)o2)c(NCc2ccncc2)c1 [Compound 215, (2,3-Dihydro-benzo[1,4]dioxin-6-yl)-(5-{2-[(pyridin-4-ylmethyl)-amino]-phenyl}-[1,3,4]oxadiazol-2-yl)-amine] | 10 µM | 100% | 0.01 µM | 
c1ccc(-c2nnc(Nc3ccc4c(c3)OCCO4)o2)c(NCc2cn[nH]c2)c1 [Compound 223, (2,3-Dihydro-benzo[1,4]dioxin-6-yl)-(5-{2-[(1H-pyrazol-4-ylmethyl)-amino]-phenyl}-[1,3,4]oxadiazol-2-yl)-amine] | 1.5 µM | 84% | 0.1 µM | 
COc1cccc(Nc2nnc(-c3ccccc3NCc3ccncc3)o2)c1 [Compound 228, (3-Methoxy-phenyl)-(5-{2-[(pyridin-4-ylmethyl)-amino]-phenyl}-[1,3,4]oxadiazol-2-yl)-amine] | 2 µM | 57% | 10 µM | 
COc1ccc2[nH]c(C(=O)c3ccccc3)cc2c1 [Compound D64131] |  |  |  | efficacy in xenograft models (xenograft models): efficacious in xenograft models; oral activity (xenograft models): orally active; toxicity (xenograft models): no signs of toxicity
O=C(Nc1ccncc1)C(=O)c1cn(Cc2ccc(Cl)cc2)c2ccccc12 [Compound D-24851] |  |  |  | antitumor activity in vivo [3]: exert antitumor activity in vivo; neurotoxicity [3]: lacks neurotoxicity; efficacy toward MDR cells (MDR cells): shows efficacy toward MDR cells

More lines, in order of falling GI50 [2], values ahead:

GI50 [2] | SMILES | Tubulin Assay: percent inhibition at 10 μM based on 30 minute data (bovine tubulin) | minimal effective concentration [1] | also measured
0.3 µM | c1cnc(NCc2ccc3c(c2)OCO3)c(-c2nnc(Nc3ccc4c(c3)OCO4)o2)c1 [Compound 181, {3-[5-(Benzo[1,3]dioxol-5-ylamino)-[1,3,4]oxadiazol-2-yl]-pyridin-2-yl}-benzo[1,3]dioxol-5-ylmethyl-amine] | 76% | 1 µM | 
0.2 µM | COc1cc(CNc2ncccc2-c2nnc(Nc3ccc4c(c3)OCO4)o2)cc(OC)c1 [Compound 182, {3-[5-(Benzo[1,3]dioxol-5-ylamino)-[1,3,4]oxadiazol-2-yl]-pyridin-2-yl}-(3,5-dimethoxy-benzyl)-amine] | 84% | 1 µM | 
0.01 µM | O=C1CCCN1CCCNc1ncccc1-c1nnc(Nc2ccc3c(c2)OCCO3)o1 [Compound 192, 1-(3-{3-[5-(2,3-Dihydro-benzo[1,4]dioxin-6-ylamino)-[1,3,4]oxadiazol-2-yl]-pyridin-2-ylamino}-propyl)-pyrrolidin-2-one] | 85% | 0.1 µM | 
0.01 µM | COc1cc(Nc2ncccc2-c2nnc(Nc3ccc4c(c3)OCCO4)o2)cc(OC)c1 [Compound 193, {3-[5-(2,3-Dihydro-benzo[1,4]dioxin-6-ylamino)-[1,3,4]oxadiazol-2-yl]-pyridin-2-yl}-(3,5-dimethoxy-phenyl)-amine] | 69% | 0.01 µM | 
